In patent publication US9512175B2, “Macrocyclic inhibitors of flaviviridae viruses” (Gilead Sciences, Inc., priority 2012, dated 2016):
Read-outs that look alike come from different tables or passages of the source.

Legend:
cyclophilin A = cyclophilin A (Homo sapiens, UniProt P62937); assay: Cyclophilin A TR-FRET competitive binding assay; settings: IC50 ranges, competition with CsA-Cy5 for His-tagged CypA, two-hour incubation
Experimental: Cyclophilin A TR-FRET Competitive Binding Assay
Inhibitor potency was measured using a competitive binding assay with a time-resolved fluorescence resonance energy transfer (TR-FRET) readout. […] An IC50 value was calculated using a four-parameter logistic fit.

[1] = system: HCV replicon (Replicon 1a); assay: anti-HCV activity in Huh-7 cell line harboring a HCV replicon (Replicon 1a); type: cell-based; settings: Hepatitis C virus, Huh-7, 72 h
[2] = read-out: Replicon 1a % inhibition at 1 μM, 1 μM, human hepatoma Huh-7 HCV replicon cells, 3 days, luciferase readout
[3] = read-out: Replicon 1a % inhibition at 1 μM

cyclophilin A, sequence (P62937 whole entry, species assumed): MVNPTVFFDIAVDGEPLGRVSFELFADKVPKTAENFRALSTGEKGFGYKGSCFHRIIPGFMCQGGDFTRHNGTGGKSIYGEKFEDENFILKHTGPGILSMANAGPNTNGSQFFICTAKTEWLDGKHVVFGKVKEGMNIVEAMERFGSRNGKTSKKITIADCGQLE

Compound | IC50 (cyclophilin A; read-out: TR-FRET) [nM] | inhibition at 1 µM [1, 2] [%] | IC50 (cyclophilin A; TR-FRET) [nM] | inhibition at 1 µM [1, 3] [%]
CC(C)[C@@H]1NC(=O)CCc2ccc(cn2)-c2cccc(c2)[C@@H](C)OC(=O)[C@@H]2CCCN(N2)C(=O)[C@H](C)NC1=O [Compound 44] | < 100 | 78 |  | 
CC(C)[C@@H]1NC(=O)[C@@](C)(COCC[Si](C)(C)C)/C=C/c2ccc3ccc(nc3c2)[C@@H](C)OC(=O)[C@@H]2CCCN(N2)C(=O)[C@H](C)NC1=O [Compound 77] |  |  | < 100 | 99
CC1NC(=O)C(C(C)C)NC(=O)C(C)(C)/C=C/c2ccc3c(C#N)cc(nc3c2)C(C)OC(=O)C2CCCN(N2)C1=O (stereo not shown) [Compound 141] | < 100 | 99 |  | 
CC(C)[C@@H]1NC(=O)[C@H](C)C/C=C/COc2ccc(F)c(c2)[C@@H](C)OC(=O)C2CCCN(N2)C(=O)[C@H](C)NC1=O (stereo partly shown) [Compound 35] |  |  | < 100 | 94
CC(C)[C@@H]1NC(=O)C(C)(C)c2cccc(c2)-c2cc3cc(ccc3cn2)[C@@H](C)OC(=O)C2CCCN(N2)C(=O)[C@H](C)NC1=O (stereo partly shown) [Compound 67] | < 100 | 97 |  | 
CC(C)[C@@H]1NC(=O)C2(/C=C/c3ccc4ccc(nc4c3)[C@@H](C)NC(=O)[C@@H]3CCCN(N3)C(=O)[C@H](C)NC1=O)CCC(F)(F)CC2 [Compound 122] | < 100 | 96 |  | 
COCCC1(C)/C=C/c2ccc3ccc(nc3c2)[C@@H](C)OC(=O)[C@@H]2CCCN(N2)C(=O)[C@H](C)NC(=O)[C@H](C(C)C)NC1=O (single isomer, unassigned) [Compound 102] | < 100 | 100 |  | 
Cc1cc2nc3cc(ccc13)/C=C/C(C)(C)C(=O)N[C@@H](C(C)C)C(=O)N[C@@H](C)C(=O)N1CCC[C@H](N1)C(=O)O[C@@H]2C [Compound 144] | < 100 | 100 |  | 
CC(C)[C@@H]1NC(=O)C2(/C=C/c3ccc4ccc(nc4c3)[C@@H](C)OC(=O)[C@@H]3CCCN(N3)C(=O)[C@H](C)NC1=O)CCCC2 [Compound 154] | < 100 | 100 |  | 
CC(C)[C@H]1C(=O)N[C@@H](C)C(=O)N2CCC[C@H](N2)C(=O)N[C@H](C)c2ccc3ccc(cc3n2)/C=C/C2(C)CCN1C2=O [Compound 84] | < 100 | 63 |  | 
CC(C)[C@@H]1NC(=O)[C@]2(/C=C/c3ccc4ccc(nc4c3)[C@@H](C)OC(=O)[C@@H]3CCCN(N3)C(=O)[C@H](C)NC1=O)CC[C@@H](O)CC2 [Compound 160] | < 100 | 98 |  | 
CC(C)[C@@H]1NC(=O)C(C)(C)/C=C/c2ccc3ccc(nc3c2)[C@@H](C)OC(=O)[C@@H]2CCCN(N2)C(=O)[C@H](Cc2c[nH]cn2)NC1=O [Compound 95] | < 100 | 68 |  | 
CC(C)[C@@H]1NC(=O)[C@H](CC2CC2)/C=C/c2ccc3ccc(nc3c2)[C@@H](C)OC(=O)[C@@H]2CCCN(N2)C(=O)[C@H](C)NC1=O [Compound 81] |  |  | < 100 | 100
C[C@@H]1NC(=O)[C@H]([C@@H](C)O)NC(=O)C/C=C/c2cc3cc(ccc3cn2)[C@@H](C)OC(=O)[C@@H]2CCCN(N2)C1=O [Compound 48] | < 100 | 40 |  | 
CC(C)[C@@H]1NC(=O)[C@H](C)[C@H](O)CCCCc2cccc(c2)[C@@H](C)NC(=O)[C@@H]2CCCN(N2)C(=O)[C@H](C)NC1=O [Compound 3, (2R,5S,11S,14S,17R,18R)-18-Hydroxy-14-isopropyl-2,11,17-trimethyl-3,9,12,15,28-pentaaza-tricyclo[21.3.1.1*5,9*]octacosa-1(26),23(27),24-triene-4,10,13,16-tetraone] | < 100 | 44 |  | 
CC(C)[C@@H]1NC(=O)C/C=C/c2ccc3ccc(cc3n2)[C@@H](C)OC(=O)[C@@H]2CCCN(N2)C(=O)[C@H](C)NC1=O [Compound 16] | 101 to 1000 | 94 |  | 
CC(C)[C@@H]1NC(=O)C(C)(C)/C=C/c2ccc3ccc(nc3c2)[C@@H](C)OC(=O)[C@@H]2CCCN(N2)C(=O)[C@H](CC(=O)N2CCCCC2)NC1=O [Compound 98] | < 100 |  |  | 95
CC(C)[C@@H]1NC(=O)C(C)(C)/C=C/c2ccc3ccc(nc3c2)[C@@H](C)OC(=O)[C@@H]2CCCN(N2)C(=O)[C@H](CC(=O)N2CCCC2)NC1=O [Compound 99] | < 100 | 96 |  | 

Compound | IC50 (cyclophilin A; read-out: TR-FRET) [nM] | inhibition at 1 µM [1, 2] [%] | IC50 (cyclophilin A; TR-FRET) [nM] | inhibition at 1 µM [1, 3] [%]
CC(C)[C@@H]1NC(=O)C(CO)(CO)/C=C/c2ccc3ccc(nc3c2)[C@@H](C)OC(=O)[C@@H]2CCCN(N2)C(=O)[C@H](C)NC1=O [Compound 76] | < 100 | 63 |  | 
CC(C)[C@@H]1NC(=O)CCC(C)(C)C/C=C/c2cccc(c2)[C@@H](C)NC(=O)[C@@H]2CCCN(N2)C(=O)[C@H](C)NC1=O [Compound 4] | 101 to 1000 | 58 |  | 
CC(C)[C@@H]1NC(=O)[C@H](C)C/C=C/c2cc3cc(ccc3cn2)[C@@H](C)OC(=O)[C@@H]2CCCN(N2)C(=O)[C@H](C)NC1=O [Compound 21] | < 100 | 93 |  | 
CC(C)[C@H](N)C(=O)O[C@@H](C)[C@H]1/C=C/c2ccc3ccc(nc3c2)[C@@H](C)OC(=O)[C@@H]2CCCN(N2)C(=O)[C@H](C)NC(=O)[C@H](C(C)C)NC1=O [Compound 167] | < 100 | 97 |  | 
CC(C)[C@@H]1NC(=O)C(C)(C)/C=C/c2ccc3ccc(nc3c2)[C@@H](C)OC(=O)[C@@H]2CCCN(N2)C(=O)[C@H](Cc2cn(C(c3ccccc3)(c3ccccc3)c3ccccc3)cn2)NC1=O [Compound 94] | < 100 | 96 |  | 
CC(C)[C@@H]1NC(=O)[C@H](C)Oc2ccc(cc2)-c2cccc(c2)[C@@H](C)OC(=O)[C@@H]2CCCN(N2)C(=O)[C@H](C)NC1=O [Compound 39] | < 100 | 98 |  | 
CC(C)[C@@H]1NC(=O)Cc2cccc(c2)-c2cc3cc(ccc3cn2)[C@@H](C)OC(=O)[C@@H]2CCCN(N2)C(=O)[C@H](C)NC1=O [Compound 65] | < 100 | 92 |  | 
CC(C)[C@@H]1NC(=O)C(C)(C)/C=C/c2ccc3ccc(nc3c2)[C@@H](C)OC(=O)[C@@H]2CCCN(N2)C(=O)[C@H](CC2CCOCC2)NC1=O (single isomer, unassigned) [Compound 112] | < 100 | 96 |  | 
CC(C)[C@@H]1NC(=O)[C@@]2(/C=C/c3ccc4ccc(nc4c3)[C@@H](C)OC(=O)[C@@H]3CCCN(N3)C(=O)[C@H](C)NC1=O)CCCN2C(=O)OC(C)(C)C [Compound 155] | < 100 | 100 |  | 
CC(C)[C@@H]1NC(=O)C(C)(C)/C=C/c2ccc3ccc(nc3c2F)[C@@H](C)OC(=O)[C@@H]2CCCN(N2)C(=O)[C@H](C)NC1=O [Compound 170] | < 100 | 100 |  | 
CO[C@@H]1/C=C/c2cc3cc(ccc3cn2)[C@@H](C)NC(=O)[C@@H]2CCCN(N2)C(=O)[C@H](C)NC(=O)[C@H](C(C)C)NC(=O)[C@@H]1C [Compound 5] | < 100 | 80 |  | 
CC(C)[C@@H]1NC(=O)C2(/C=C/c3ccc4ccc(nc4c3)[C@@H](C)OC(=O)[C@@H]3CCCN(N3)C(=O)[C@H](C)NC1=O)CCOCC2 [Compound 153] | < 100 | 100 |  | 
CC(C)[C@@H]1NC(=O)C(C)(C)/C=C/c2ccc3ccc(nc3c2)[C@H]2CCCN2C(=O)[C@@H]2CCCN(N2)C(=O)[C@H](C)NC1=O (single isomer, unassigned) [Compound 150] | < 100 | 95 |  | 
CCCC(=O)O[C@@H](C)[C@H]1/C=C/c2ccc3ccc(nc3c2)[C@@H](C)OC(=O)[C@@H]2CCCN(N2)C(=O)[C@H](C)NC(=O)[C@H](C(C)C)NC1=O [Compound 172] | < 100 | 100 |  | 
CO[C@@H]1/C=C/c2cc3cc(ccc3cn2)[C@@H](C)OC(=O)[C@@]2(C)CCCN(N2)C(=O)[C@H](C)NC(=O)C(C(C)C)NC(=O)[C@@H]1C (stereo partly shown) [Compound 33] | 1000 to 10000 | 14 |  | 
CO[C@@H]1/C=C/COc2cccc(c2)[C@@H](C(C)C)NC(=O)[C@@H]2CCCN(N2)C(=O)[C@H](C)NC(=O)[C@H](C(C)C)NC(=O)[C@@H]1C [Compound 37, (E)-(2R,5S,11 S,14S,17R,18R)-2,14-Diisopropyl-18-methoxy-11,17-dimethyl-22-oxa-3,9,12,15,28-pentaaza-tricyclo[21.3.1.1*5,9*]octacosa-1 (27),19,23,25-tetraene-4,10,13,16-tetraone] |  |  | < 100 | 76
CCN1CCC2(/C=C/c3ccc4ccc(nc4c3)[C@@H](C)OC(=O)[C@@H]3CCCN(N3)C(=O)[C@H](C)NC(=O)[C@H](C(C)C)NC2=O)CC1 [Compound 129] | < 100 |  |  | 96
